Results as given in US7759313B2, “Induction method for cell differentiation” (Obschetstvo S Ogranichennoi Otvetstvennostiyu …, priority 2002, dated 2010).
Where two headings read alike, the source gives them in different places.

Tests used:
[1] = type: in vivo, mice
From the text: (§1) Two groups of mice are used.

[2] = Total leukocyte number in peripheral blood under Cyclophosphamide
[3] = Peripheral blood leukocytes formula under Cyclophosphamide; type: in vivo, mice; conditions: day 3 post CPH
From the text: as §1

For `O=P1(N(CCCl)CCCl)NCCCO1` (centres unmarked) [CPH, Cyclophosphamide], the “Cellularity of bone marrow (number of cells)” value (“Cellularity of bone marrow” for short) ([1]; CPH 200 mg/kg (Dicarbamine group: 0.5 mg/kg 5 days prior and 5 days after), day 3) was 8.2 ± 1.65 millions, the “Cellularity of bone marrow” value ([1]; day 5 after CPH) was 13.05 ± 2.75 millions and the “Cellularity of bone marrow” value ([1]; day 7 after CPH) was 25.22 ± 2.75 millions. The “Cellularity of bone marrow” value ([1]; day 10 after CPH) was 27.9 ± 2.75 millions, the “Cellularity of bone marrow” value ([1]; day 13 after CPH) was 30.15 ± 6.6 millions and the “Cellularity of bone marrow” value ([1]; day 17 after CPH) was 25.0 ± 3.16 millions. The “Cellularity of bone marrow” value ([1]; day 21 after CPH) was 26.55 ± 4.53 millions, the Total leukocyte number ([2]; CPH 200 mg/kg, day 5) was 4.38 ± 0.77 thousand in mm^3 and the Total leukocyte number ([2]; CPH 200 mg/kg, day 7) was 10.50 ± 3.02 thousand in mm^3. It also gave a Total leukocyte number ([2]; CPH 200 mg/kg, day 10) of 6.44 ± 0.60 thousand in mm^3, a Total leukocyte number ([2]; CPH 200 mg/kg, day 13) of 12.20 ± 3.02 thousand in mm^3 and a Total leukocyte number ([2]; CPH 200 mg/kg, day 17) of 12.20 ± 1.80 thousand in mm^3. The Total leukocyte number ([2]; CPH 200 mg/kg, day 21) was 11.86 ± 1.32 thousand in mm^3, the Total leukocyte number ([2]; single CPH 200 mg/kg (Dicarbamine group: 0.5 mg/kg daily 5 days before and 5 days after), day 3 post CPH) was 1.06 ± 0.44 thousand in mm^3 and the Myelocytes ([3]; CPH 200 mg/kg (Dicarbamine group: 0.5 mg/kg 5 days prior and 5 days after)) was 0%. For the same molecule, the Monocytes [3] was 4.649% and the Myelocytes [3] was 0 in mm^3.
